{
  "source": "patent US10737995B2",
  "about": "“Nuclear receptor modulators and their use for the treatment and prevention of cancer” (The United States of America, as represented by the …, priority 2011, dated 2020)",
  "key": {"[1]": {"tested_on": "PSA mRNA expression in LNCaP cells", "test": "PSA mRNA expression in LNCaP cells, real time RT-PCR", "assay_type": "cell-based, human", "settings": "for block of R1881-induced PSA mRNA induction: in the presence of R1881, dose-dependent manner (FIG. 6); for inhibition of PSA mRNA: LNCaP cells (FIG. 12); for inhibition of PSA mRNA expression: 500 nM (FIG. 9); for agonistic effects on PSA and TMPRSS2 mRNA levels: dose dependent study (FIG. 9)", "procedure": "FIG. 3 is a graph showing the inhibition of PSA mRNA expression. […] As shown in the graph, a hit was identified that inhibited over 90% PSA mRNA expression in LNCaP cells at 10 μM after 20 hours of treatment.\n(§1) LNCaP cells were incubated for 3 days in phenol red-free RPMI 1640 supplemented with 10% charcoal-stripped FBS and 1% antimycotic-antibiotic solution, and then cells were treated for 20 hours. The concentration of R1881 was 0.5 nM, and that of the corresponding compounds was 10, 5 or 1 μM, respectively. Compound 49 inhibited PSA mRNA expression 80% in the presence of R1881 at 5 μM. This activity was similar to bicalutamide.\n(§2) For PSA, TMPRSS2, and UBE2C mRNA determination, LNCaP cells or 22Rv1 cells, were cultured and treated with the corresponding compounds for 20 hours in the presence or absence of the synthetic androgen R1881. Total RNA was isolated from cultured cells using the RNeasy RNA Isolation Kit (Qiagen). The RNAs were reverse transcribed immediately after RNA extraction with the High Capacity cDNA Reverse Transcription Kit (Applied Biosystems), using random primers included in the kit, according to the manufacturer's instructions. The cDNA products were stored at −20° C. until the PCR analysis was performed. Real-time PCR primers were designed using Primer Express Applications (Applied Biosystems). The primer sequences for real-time PCR were as follows:\n(§3) The mRNA level and total protein in cells were measured after treatment with either control, bicalutamide (0.08 μM to 1.25 μM), or MDV3100 (an antiandrogen) and either about 2.5 μM or about 1.0 μM of Compounds 1-117 respectively. It was known that the expression of PSA mRNA in LNCaP cells is driven by an AR mediated pathway. While PSA is androgen-dependent AR-target gene, UBE2C is androgen-independent AR-target gene. The PSA, TMPRSS2 and UBE2C mRNA levels were normalized by the rRNA level."}, "[2]": {"tested_on": "TMPRSS2 mRNA expression in LNCaP cells", "test": "TMPRSS2 mRNA expression in LNCaP cells, real time RT-PCR", "assay_type": "cell-based, human", "settings": "for block of R1881-induced TMPRSS2 mRNA induction: in the presence of R1881, dose-dependent manner (FIG. 6); for inhibition of TMPRSS2 mRNA: LNCaP cells (FIG. 12)", "procedure": "as §1, §2, §3"}, "[3]": {"tested_on": "R1881-induced AR translocation to the nucleus", "test": "AR translocation, immunocytochemistry in LNCaP cells", "assay_type": "cell-based, human", "settings": "10 μM for three hours, then 1 nM R1881 for three hours (FIG. 7)", "procedure": "FIG. 7 is a graph showing the results of an AR translocation experiment. LNCaP cells were incubated on cover slips in phenol red free RPMI 1640 with 10% charcoal stripped FBS and 1% antimycotic-antibiotic solution for three days. Cells were treated with DMSO, bicalutamide (10 μM) or Compound 11 for three hours, followed by treatment with 1 nM R1881 for three hours. Cells were washed with PBS, fixed with 0.4% paraformaldehyde for 30 min at 37° C., washed with PBS, permeabilized with 0.4% Triton X-100 for 10 min, and then stained with anti-AR antibody (1:100 dilution, Santa Cruz Biotechnology, Santa Cruz, Calif.) for 1 hour at room temperature. After washing with PBS, cells were stained with FITC-labeled goat anti-rabbit IgG (1:200 dilution, BD Biosciences, San Jose, Calif.) for 1 hour at room temperature. After washing with PBS, cells were incubated for 10 min with Hoechst 33342 for nuclear staining, washed, and the dried cover slips were mounted on glass slides with SlowFade Gold anti-fade reagent (Invitrogen). Fluorescence images were obtained using a Leica® DM IRB fluorescence microscope, and nuclear-to-cytoplasmic AR ratios were measured using OpenLab® (Perkin Elmer, Waltham, Mass.) software. […]"}, "[4]": {"tested_on": "UBE2C mRNA expression in LNCaP cells", "test": "UBE2C mRNA expression in LNCaP cells, real time RT-PCR", "assay_type": "cell-based, human", "settings": "LNCaP cells (FIG. 12)", "procedure": "as §2, §3"}, "[5]": {"tested_on": "PSA mRNA expression in 22Rv1 cells", "test": "PSA mRNA expression in 22Rv1 cells, real time RT-PCR", "assay_type": "cell-based, human", "procedure": "as §2\n[…] It was known that the expression of PSA mRNA in LNCaP cells is driven by an AR mediated pathway. While PSA is androgen-dependent AR-target gene, UBE2C is androgen-independent AR-target gene. The PSA, TMPRSS2 and UBE2C mRNA levels were normalized by the rRNA level."}, "[6]": {"tested_on": "UBE2C mRNA expression in 22Rv1 cells", "test": "UBE2C mRNA expression in 22Rv1 cells, real time RT-PCR", "assay_type": "cell-based, human", "settings": "22Rv1 cells (FIG. 13)", "procedure": "as §2, §3"}, "[7]": {"tested_on": "LNCaP cells", "test": "LNCaP cell growth, Trypan blue viable cell count", "assay_type": "cell-based", "settings": "Homo sapiens, 72 h, 3 days incubation, Trypan blue viable cell number, read-out: IC50 of LNCaP cell growth inhibition", "procedure": "LNCaP cells were incubated with Compound 49 for 3 days. Viable cell number was determined by Trypan blue staining and counting in a hemocytometer. The IC50 value of Compound 49 was 3 μM."}, "[8]": {"tested_on": "AR in LNCaP cells", "test": "AR Western blot, LNCaP cells treated 6 hours", "assay_type": "cell-based, human", "settings": "10 μM (data not shown)", "procedure": "LNCaP cells were maintained as above. At 50% confluence, cells were washed several times in serum-free RPMI-1640 medium, and re-cultured for 72 hours in RPMI-1640 medium containing 10% charcoal-stripped fetal bovine serum. Cells were treated with R1881 (0.5 nM), with, or without 10 μM, 5 μM or 1 μM of Compounds 1-117, and then cells were cultured for 20 hours. Nuclear and cytoplasmic protein fractionation was performed using NE-PER Nuclear and Cytoplasmic Extraction Reagents Kit (Thermo Scientific Pierce Protein Research Products) according to the manufacturer's instructions. Quantification of AR in nucleus and cytosol was performed by Western blotting with an AR-specific antibody following polyacrylamide gel electrophoresis.\nLNCaP cells were also tested after treatment for only 6 hours. Compounds 49, 80 and 86, as well as KU135 (a C-terminal Hsp90 inhibitor) and 17-AAG (a known AR degradation inducer), were tested at 2.5, 5, and 10 μM as well as control (DMSO vehicle). […] LAPC-4 cells (a human prostate cancer cell line with wt AR) were tested against Compounds 80, 86, KU-32 (another C-terminal Hsp90 inhibitor) and 17-AAG."}, "[9]": {"tested_on": "genome-wide transcriptional response", "test": "Microarray analysis of genome-wide transcriptional response", "assay_type": "cell-based, human", "procedure": "This example illustrates that Compound 86 has an impact on AR-driven gene expression (PSA) and androgen-independent AR-driven gene expression (e.g., UBE2C). A microarray analysis was performed on the genome-wide transcriptional response to Compound 86 compared with the antiandrogens bicalutamide and MDV3100, and solvent DMSO. Each compound was tested at two concentrations: 1 and 5 μM. The data were subjected to bioinformatics analysis using the Partek Genomics Software. […] FIG. 19B depicts a different view in 3-dimensional space again reinforcing the differences between Compound 86 versus DMSO, bicalutamide and MDV3100. This visual assessment is consistent with the data showing that Compound 86 and not DMSO, bicalutamide, or MDV3100, can inhibit the androgen-independent, androgen receptor-dependent transcriptional program of castrate-resistant prostate cancer."}, "[10]": {"tested_on": "TMPRSS2 mRNA expression in 22Rv1 cells", "test": "TMPRSS2 mRNA expression in 22Rv1 cells, real time RT-PCR", "assay_type": "cell-based, human", "settings": "22Rv1 cells (FIG. 13)", "procedure": "as §2, §3"}, "[11]": {"settings": "LNCaP cells, synthetic androgen R1881 (FIG. 6)"}},
  "note": "pIC50: −log10 of the molar value.",
  "data": [
    {"smiles": "COc1ccc(C(=O)/C=C/c2ccc([N+](=O)[O-])cc2)c(OC)c1OC", "note": "[Compound 11]", "values": [
      {"measurement": "block of R1881-induced PSA mRNA induction", "setting": "[1]", "result": "blocked"},
      {"measurement": "block of R1881-induced TMPRSS2 mRNA induction", "setting": "[2]", "result": "blocked"},
      {"measurement": "inhibition of R1881-induced AR translocation to the nucleus (nuclear-to-cytoplasmic AR ratio)", "setting": "[3]", "result": "markedly more active than bicalutamide"}
    ]},
    {"smiles": "COc1ccc(C(=O)/C=C/c2cccc([N+](=O)[O-])c2)c(OC)c1OC", "note": "[Compound 12]", "values": [
      {"measurement": "agonistic effect on AR target gene expression", "setting": "[1]; 1 μM, PSA and TMPRSS2, in the presence of R1881 (FIG. 6)", "result": "weak agonistic effect"},
      {"measurement": "activity in blocking R1881-induced AR target gene expression relative to Compound 11", "setting": "[1]; high concentrations, PSA and TMPRSS2, in the presence of R1881", "result": "more active"},
      {"measurement": "block of R1881-induced PSA mRNA induction", "setting": "[1]", "result": "blocked"},
      {"measurement": "block of R1881-induced TMPRSS2 mRNA induction", "setting": "[2]", "result": "blocked"}
    ]},
    {"smiles": "COc1ccccc1C(=O)/C=C/c1ccccc1[N+](=O)[O-]", "note": "[Compound 49]", "values": [
      {"measurement": "inhibition of PSA mRNA", "setting": "[1]", "result": "inhibited"},
      {"measurement": "inhibition of PSA mRNA expression in the presence of R1881", "setting": "[1]; LNCaP cells, 0.5 nM R1881, 5 μM, 20 hours (FIG. 10)", "result": 80, "unit": "%"},
      {"measurement": "inhibition of PSA mRNA expression", "setting": "[1]; LNCaP cells", "result": 50, "unit": "%"},
      {"measurement": "agonistic effects on PSA and TMPRSS2 mRNA levels", "setting": "[1]; LNCaP cells", "result": "No agonistic effects"},
      {"measurement": "inhibition of TMPRSS2 mRNA", "setting": "[2]", "result": "inhibited"},
      {"measurement": "inhibition of UBE2C mRNA", "setting": "[4]", "result": "not effective"},
      {"measurement": "inhibition of PSA mRNA expression compared to control", "setting": "[5]; 22Rv1 cells (FIG. 13)", "result": 80, "unit": "%"},
      {"measurement": "inhibition of UBE2C mRNA expression", "setting": "[6]", "result": "completely failed to inhibit"},
      {"measurement": "pIC50", "setting": "[7]", "result": 5.52}
    ]},
    {"smiles": "COc1cc(C(=O)/C=C/c2cccc([N+](=O)[O-])c2)cc(OC)c1OC", "note": "[Compound 80]", "values": [
      {"measurement": "inhibition in AR Western blot", "setting": "[8]", "result": "showed inhibition"}
    ]},
    {"smiles": "COc1ccc(C(=O)/C=C/c2ccc(C#N)cc2)cc1OC", "note": "[Compound 103]", "values": [
      {"measurement": "inhibition of PSA mRNA", "setting": "[1]", "result": "inhibited"},
      {"measurement": "inhibition of PSA mRNA expression", "setting": "[1]; LNCaP cells", "result": 50, "unit": "%"},
      {"measurement": "agonistic effects on PSA and TMPRSS2 mRNA levels", "setting": "[1]; LNCaP cells", "result": "No agonistic effects"},
      {"measurement": "inhibition of TMPRSS2 mRNA", "setting": "[2]", "result": "inhibited"},
      {"measurement": "inhibition of UBE2C mRNA", "setting": "[4]", "result": "not effective"}
    ]},
    {"smiles": "C[C@]1(O)CC[C@H]2[C@@H]3CCC4=CC(=O)CCC4=C3C=C[C@@]21C", "note": "[Compound R1881, methyltrienolone, reference compound]", "values": [
      {"measurement": "PSA mRNA induction compared with the DMSO control", "setting": "[1]; [11]", "result": "about 500 fold"},
      {"measurement": "TMPRSS2 mRNA induction compared with the DMSO control", "setting": "[2]; [11]", "result": "~30", "unit": "fold"}
    ]},
    {"smiles": "CNC(=O)c1ccc(N2C(=S)N(c3ccc(C#N)c(C(F)(F)F)c3)C(=O)C2(C)C)cc1F", "note": "[MDV3100, 4-(3-(4-cyano-3-(trifluoromethyl)phenyl)-5,5-dimethyl-4-oxo-2-thioxoimidazolidin-1-yl)-2-fluoro-N-methylbenzamide]", "values": [
      {"measurement": "sensitivity of PSA mRNA expression", "setting": "[5]; 22Rv1 cells, 20 hours of exposure, 10 μM (FIG. 14)", "result": "insensitive"},
      {"measurement": "inhibition of the androgen-independent, androgen receptor-dependent transcriptional program of castrate-resistant prostate cancer", "setting": "[9]", "result": "not"}
    ]},
    {"smiles": "CC(O)(CS(=O)(=O)c1ccc(F)cc1)C(=O)Nc1ccc(C#N)c(C(F)(F)F)c1", "note": "(stereo not drawn) [bicalutamide, reference compound]", "values": [
      {"measurement": "pIC50", "setting": "[1]; Homo sapiens, LNCaP cells, dose-dependent study (FIG. 4), read-out: IC50 of PSA mRNA inhibition", "result": 6.52},
      {"measurement": "inhibition of PSA mRNA expression", "setting": "[5]; 22Rv1 cells (FIG. 13)", "result": "No inhibition"},
      {"measurement": "inhibition of TMPRSS2 mRNA expression", "setting": "[10]", "result": "No inhibition"},
      {"measurement": "inhibition of UBE2C mRNA expression", "setting": "[6]", "result": "No inhibition"}
    ]}
  ]
}
